Patent US20250179057A1, “MEK IMMUNE ONCOLOGY INHIBITORS AND THERAPEUTIC USES THEREOF” (Immuneering Corporation, priority 2022, published 2025)
Where a name gives a salt, the structure may show the parent alone. Each block holds one compound with its values, some of them ahead of it.

How the values were obtained:
[1] = system: phospho-MEK in A549 cells; assay: Cell-based pMEK (pMEK:tMEK, CRAF bypass) in A549 cells; details: for A549-CRAF BP 100 nM, 2 h: pMEK to total MEK normalized to DMSO control
Method in brief: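 Cells (A549 or A375) exposed 2 h to compounds at varying concentrations in duplicate, then lysed; lysates set to 1.5 mg/mL for pMEK by quantitative Western (Jess). Phospho-MEK/total MEK ratio normalized to DMSO control.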

[2] = system: phospho-ERK in A375 cells; assay: Cell-based pERK (pERK:tERK) in A375 cells; details: for pERK/tERK ratio normalized to DMSO: A375 (BRAF p.V600E), 100 nM
Procedure: Materials and Methods: A549 or A375 cells were seeded in 6-well plates at an appropriate seeding density on day 0. On day 2 or 3, after checking the health and confluency of cells, the media was aspirated and replaced with 1 mL media containing a predetermined concentration of compound and incubated for 2 hours. After 2 hours, the media was aspirated, and the cells washed 2 times with cold PBS. Cells were lysed on ice, with 50 uL 1×CST lysis buffer +1 mM PMSF for 5 minutes. After 5 minutes, cells were removed using a scraper and transferred to cold 1.5 mL tubes, and centrifuged for 10 min, 4° C., 14,000×g. Supernatant was gently removed and snap frozen in liquid nitrogen. Protein concentration of the lysate was determined using Bradford Reagent (analyzed using SpectraMax M2E) and diluted to 1 mg/mL or pERK or 1.5 mg/mL for pMEK analysis. […] All dilutions were in Milk-free antibody diluent.
A549 or […] cells were treated in duplicate for two hours with compounds at varying concentrations. After two hours, the cells were lysed, snap frozen, and stored at −80° C. After storage, the lysate was quantified with the Bradford assay. Before the lysates were prepared to run on the Jess, the lysates were diluted to 1 mg/mL for pERK analysis and 1.5 mg/mL pMEK analysis using quantitative Western blotting. ERK and MEK phosphorylation levels were estimated by taking the ratio of phospho-protein to total protein and normalizing to the DMSO control.
(§1) The nine models are described in Table 16.

[3] = Plasma stability, mouse plasma (Balb/c; Table 5 head CD-1 Mouse); assay type: in vitro ADME; details: 2 μM
in vitro = details: human; for Papp A→B at 2 h, 10 μM: Caco-2, Mean Papp A-B (10^-6 cm/s); for Papp B→A at 2 h, 10 μM: Caco-2, Mean Papp B-A (10^-6 cm/s)
CYP2B6 = biological target: T1, CYP2B6 (Homo sapiens, UniProt P20813); assay: in vitro; details: microsomes, pH 7.4
T1 sequence (P20813 1-491): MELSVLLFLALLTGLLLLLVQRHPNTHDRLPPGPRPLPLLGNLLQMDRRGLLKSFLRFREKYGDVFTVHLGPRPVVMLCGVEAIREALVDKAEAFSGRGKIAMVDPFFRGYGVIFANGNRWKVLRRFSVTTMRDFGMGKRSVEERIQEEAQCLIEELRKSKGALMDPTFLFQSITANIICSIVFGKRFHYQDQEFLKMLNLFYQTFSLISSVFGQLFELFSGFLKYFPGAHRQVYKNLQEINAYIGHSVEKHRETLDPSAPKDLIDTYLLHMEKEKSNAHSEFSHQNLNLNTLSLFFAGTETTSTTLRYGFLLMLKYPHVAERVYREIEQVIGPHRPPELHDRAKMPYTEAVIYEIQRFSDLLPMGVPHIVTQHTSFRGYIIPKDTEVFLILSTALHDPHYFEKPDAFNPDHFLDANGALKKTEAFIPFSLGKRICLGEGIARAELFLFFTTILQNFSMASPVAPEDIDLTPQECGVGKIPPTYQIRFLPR

CYP2C19 = CYP2C19 (Homo sapiens, UniProt P33261); assay: in vitro; details: microsomes, pH 7.4
[4] = system: phospho-ERK in SK-MEL-28 cells; assay: pERK/tERK ratio in SK-MEL-28 melanoma model; assay type: cell-based; details: SK-MEL-28 (BRAF p.V600E); 100 nM
Procedure: (§2) Compound (drug) treatment: Cells were plated in a 6-well plate at a density of 250,000-300,000 cells/well in 3 mL media and incubated 37° C. in a humidified, 5% CO2 incubator. […] These solutions were added to the cells (3 uL/well), mixed by swirling the plate, and incubated at 37° C. in a humidified, 5% CO2 incubator for 2 hours.
(§3) Cell lysis and protein estimation: Cells were washed with PBS, and scraped in 50 μL of lysis buffer containing protease and phosphatase inhibitors. Cell lysates were stored at −20° C. Cell lysates were thawed and spun at 12,000 rpm for one minute, 3 ul of the supernatant was added to 500 μL of Coomassie blue reagent following by 500 μL of water. […] Protein standards were used (0-20 mg/mL) to calculate protein concentrations of test samples.
(§4) All samples were heated at 95° C. for 5 minutes, cooled to room temperature and spun down. […] After the run, gel was removed and protein transfer was done using iBlot for 7 minutes, as per manufacturer's recommendations. After the transfer, nitrocellulose membrane was incubated on a shaker in 5 mL of blocking buffer at room temperature for 1 hr. The blot was then incubated overnight on a shaker in 5 ml of blocking buffer containing 0.2% Tween-20 and primary antibody, at room temperature. Anti-phospho-STAT3 antibody was used at a dilution of 1:500, the other 3 primary antibodies were used at a dilution of 1:1000.
(§5) Next day, the blot was washed 3 times for 10 min each with 10 mL of TBST followed by incubation on a shaker in 5 ml of blocking buffer containing 0.2% Tween-20 and 0.5 ul of the IRDye labeled secondary antibodies, diluted 1:10000, at room temperature for 1 hr. The blot was then washed 3 times for 10 min each with 10 mL of TBST and dried between sheets of paper towels. Imaging was done using LICOR's Odyssey imaging system, quantitation was done using their software, Image Studio version 3.1.
as §1

[5] = system: phospho-MEK in Hs852.T cells; assay: pMEK/tMEK ratio in Hs852.T melanoma model; assay type: cell-based; details: Hs852.T (NRAS p.G12V); 100 nM
Procedure: as §2, §3, §4, §5, §1

[6] = system: phospho-MEK in MeWo cells; assay: pMEK/tMEK ratio in MeWo melanoma model; assay type: cell-based; details: MeWo (NF1 LoF); 100 nM
Procedure: as §2, §3, §4, §5, §1

[7] = system: phospho-ERK in MM127 cells; assay: pERK/tERK ratio in MM127 melanoma model; assay type: cell-based; details: MM127 (NRAS p.G13R, BRAF p.G464E); 100 nM
Procedure: as §2, §3, §4, §5, §1

[8] = system: phospho-ERK in Hs852.T cells; assay: pERK/tERK ratio in Hs852.T melanoma model; assay type: cell-based; details: Hs852.T (NRAS p.G12V); 100 nM
Procedure: as §2, §3, §4, §5, §1

[9] = system: phospho-ERK in MEL-JUSO cells; assay: pERK/tERK ratio in MEL-JUSO melanoma model; assay type: cell-based; details: MEL-JUSO (HRAS p.G13D, NRAS p.Q61L); 100 nM
Procedure: as §2, §3, §4, §5, §1

[10] = system: phospho-MEK in A375 cells; assay: pMEK/tMEK ratio in A375 melanoma model; assay type: cell-based; details: A375 (BRAF p.V600E); 100 nM
Procedure: as §2, §3, §4, §5, §1

[11] = system: phospho-ERK in SK-MEL-30 cells; assay: pERK/tERK ratio in SK-MEL-30 melanoma model; assay type: cell-based; details: SK-MEL-30 (NRAS p.Q61K); 100 nM
Procedure: as §2, §3, §4, §5, §1

Sequence of CYP2C19 (P33261 whole entry): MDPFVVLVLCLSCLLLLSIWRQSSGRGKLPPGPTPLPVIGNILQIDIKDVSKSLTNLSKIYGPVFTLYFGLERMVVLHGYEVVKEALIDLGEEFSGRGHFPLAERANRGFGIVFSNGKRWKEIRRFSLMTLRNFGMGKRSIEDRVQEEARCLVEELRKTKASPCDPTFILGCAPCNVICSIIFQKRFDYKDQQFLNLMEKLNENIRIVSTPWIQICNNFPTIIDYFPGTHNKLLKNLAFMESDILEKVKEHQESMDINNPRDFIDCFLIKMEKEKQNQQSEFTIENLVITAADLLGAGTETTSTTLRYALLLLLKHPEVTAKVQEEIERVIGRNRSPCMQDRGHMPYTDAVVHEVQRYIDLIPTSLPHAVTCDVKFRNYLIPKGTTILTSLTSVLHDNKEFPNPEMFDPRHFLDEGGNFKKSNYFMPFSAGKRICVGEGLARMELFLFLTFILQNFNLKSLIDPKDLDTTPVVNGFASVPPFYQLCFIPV

SMILES: CNS(=O)(=O)Nc1cccc(Cc2c(CN(C)C)c3ccc(OC(=O)N(C)C)cc3oc2=O)c1F [Compound 9]
A549-CRAF BP 100 nM, 2 h [1]: 44.9 (mean, n = 8) | CRAF A549 pMEK:tMEK [100 nM; 2 hr] [1]: 0.47 | A375 pERK:tERK ratio [10 nM; 2 hr] [2]: 0.71

CD-1 Mouse (% Reamining @2 hour) ([3]; plasma, 2 hour): 92.9% | Papp A→B at 2 h, 10 μM (in vitro): 18.1 ×10⁻⁶ cm/s | Papp B→A at 2 h, 10 μM (in vitro): 20.9 ×10⁻⁶ cm/s | A-B Permeability Ranking (Caco-2 cells): High
SMILES: CNS(=O)(=O)Nc1nccc(Cc2c(C)c3ccc(Oc4ncccn4)cc3oc2=O)c1F [Reference-2, reference compound]
CRAF A549 pMEK:tMEK [100 nM; 2 hr] [1]: 2.09

SMILES: CCS(=O)(=O)Nc1cccc(Cc2c(CN3CCNCC3)c3cc(Cl)c(OC(=O)N(C)C)cc3oc2=O)c1Cl [Compound 257, 6-chloro-3-(2-chloro-3-(ethylsulfonamido)benzyl)-2-oxo-4-(piperazin-1-ylmethyl)-2H-chromen-7-yl dimethylcarbamate hydrochloride]
inhibition at 30 min, 10 µM (CYP2B6): 13.7% | inhibition at 30 min, 10 µM (CYP2C19): 47.5%

SMILES: CNS(=O)(=O)Nc1cccc(Cc2c(CN(C)C)c3ccc(OC(=O)N(C)C)cc3oc2=O)c1Cl [Compound 274, 3-(2-chloro-3-((N-methylsulfamoyl)amino)benzyl)-4-((dimethylamino)methyl)-2-oxo-2H-chromen-7-yl dimethylcarbamate]
pERK/tERK ratio normalized to DMSO [4]: 0.745 | pMEK/tMEK ratio normalized to DMSO [5]: 0.672 | inhibition at 30 min, 10 µM (CYP2B6): -0.6% | pMEK/tMEK ratio normalized to DMSO [6]: 0.904 | pERK/tERK ratio normalized to DMSO [7]: 0.533 | inhibition at 30 min, 10 µM (CYP2C19): 15.1% | pERK/tERK ratio normalized to DMSO [8]: 0.731 | pERK/tERK ratio normalized to DMSO [2]: 0.477 | pERK/tERK ratio normalized to DMSO [9]: 0.631 | pMEK/tMEK ratio normalized to DMSO [10]: 0.585 | pERK/tERK ratio normalized to DMSO [11]: 0.521

SMILES: CNS(=O)(=O)Nc1cccc(Cc2c(CN(C)C)c3cc(F)c(OC(=O)N(C)C)cc3oc2=O)c1F [Compound 25]
A549-CRAF BP 100 nM, 2 h [1]: 71

SMILES: Cn1cnc2c(F)c(Nc3ccc(Br)cc3Cl)c(C(=O)NOCCO)cc21 [Reference-1, Selumetinib]
pERK/tERK ratio normalized to DMSO [4]: 0.152 | pMEK/tMEK ratio normalized to DMSO [5]: 4.945 | CD-1 Mouse (% Reamining @2 hour) ([3]; CD-1, mouse, 2 h, pH 7.4): 104.8% | efflux ratio at 2 h, 10 μM (in vitro; Caco-2, Mean (B-A/A-B) (Efflux Ratio)): 3.19 | Papp A→B at 2 h, 10 μM (in vitro): 8.83 ×10⁻⁶ cm/s | Papp B→A at 2 h, 10 μM (in vitro): 28.2 ×10⁻⁶ cm/s | pMEK/tMEK ratio normalized to DMSO [6]: 5.483 | pERK/tERK ratio normalized to DMSO [7]: 0.255 | pERK/tERK ratio normalized to DMSO [8]: 0.293 | CRAF A549 pMEK:tMEK [100 nM; 2 hr] [1]: 2.09 | A375 pERK:tERK ratio [10 nM; 2 hr] [2]: 0.59 | pERK/tERK ratio normalized to DMSO [2]: 0.199 | A-B Permeability Ranking (Caco-2 cells): High | pERK/tERK ratio normalized to DMSO [9]: 0.179 | pMEK/tMEK ratio normalized to DMSO [10]: 0.962 | pERK/tERK ratio normalized to DMSO [11]: 0.163

SMILES: CCN(C)Cc1c(Cc2cccc(NS(=O)(=O)NC)c2Cl)c(=O)oc2cc(OC(=O)N(C)C)ccc12 [Compound 245, 3-(2-chloro-3-((N-methylsulfamoyl)amino)benzyl)-4-((ethyl(methyl)amino)methyl)-2-oxo-2H-chromen-7-yl dimethylcarbamate]
inhibition at 30 min, 10 µM (CYP2B6): 6% | inhibition at 30 min, 10 µM (CYP2C19): 29%

SMILES: CNS(=O)(=O)Nc1cccc(Cc2c(CN3CCNCC3)c3cc(Cl)c(OC(=O)N(C)C)cc3oc2=O)c1Cl [Compound 256, 6-chloro-3-(2-chloro-3-((N-methylsulfamoyl)amino)benzyl)-2-oxo-4-(piperazin-1-ylmethyl)-2H-chromen-7-yl dimethylcarbamate hydrochloride]
inhibition at 30 min, 10 µM (CYP2B6): 1.9% | inhibition at 30 min, 10 µM (CYP2C19): 40.8%

SMILES: CNS(=O)(=O)Nc1cccc(Cc2c(CN3CCNCC3)c3cc(F)c(OC(=O)N(C)C)cc3oc2=O)c1F [Compound 134]
A549-CRAF BP 100 nM, 2 h [1]: 26.9

SMILES: CNS(=O)(=O)Nc1cccc(Cc2c(CN3CCNCC3)c3ccc(OC(=O)N(C)C)cc3oc2=O)c1Cl [Compound 246, 3-(2-chloro-3-((N-methylsulfamoyl)amino)benzyl)-2-oxo-4-(piperazin-1-ylmethyl)-2H-chromen-7-yl dimethylcarbamate hydrochloride]
inhibition at 30 min, 10 µM (CYP2B6): 29.7% | inhibition at 30 min, 10 µM (CYP2C19): 22%
